Results on 3 compounds are retold here after article PMC2587100 (Biochemistry, 2008).

Format in all cases: biochemical
For assay [1], the target named is T1, alkaline phosphatase (AP) (Escherichia coli, UniProt P00634, R188S). The assay can be described thus: […]-based hydrolysis assay, kcat/KM.
Assay [2] deals with T2, alkaline phosphatase (AP) (Escherichia coli, UniProt P00634, R188K). The assay can be described thus: […]-based hydrolysis assay, kcat/KM.
The target of assay [3] is T2, alkaline phosphatase (AP). As to the kind of experiment: continuous absorbance assay of hydrolysis, kcat/KM.
In assay [4] the target is T1, alkaline phosphatase (AP). The assay can be described thus: continuous absorbance assay of hydrolysis, kcat/KM.
Assay [5] addresses alkaline phosphatase (AP) (Escherichia coli, UniProt P00634). As to the kind of experiment: steady-state hydrolysis by purified enzyme, kcat/KM.
Assay [6] concerns the target T1, alkaline phosphatase (AP). Described as above.
The target of assay [7] is T2, alkaline phosphatase (AP). The description is as above.

T2 sequence (P00634 23-471 R188K): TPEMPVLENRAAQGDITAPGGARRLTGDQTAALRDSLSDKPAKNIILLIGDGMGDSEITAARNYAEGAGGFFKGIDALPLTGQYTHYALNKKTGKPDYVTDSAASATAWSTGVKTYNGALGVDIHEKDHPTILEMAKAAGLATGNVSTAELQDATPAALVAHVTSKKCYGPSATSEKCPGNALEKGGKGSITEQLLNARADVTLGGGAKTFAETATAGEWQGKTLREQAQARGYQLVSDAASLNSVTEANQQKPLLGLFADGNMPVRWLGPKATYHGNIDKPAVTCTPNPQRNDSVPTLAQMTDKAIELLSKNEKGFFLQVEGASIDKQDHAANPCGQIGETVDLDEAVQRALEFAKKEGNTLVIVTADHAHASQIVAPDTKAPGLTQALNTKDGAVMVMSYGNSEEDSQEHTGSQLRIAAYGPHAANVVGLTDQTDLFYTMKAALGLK
T1 sequence (P00634 23-471 R188S): as the sequence (P00634 23-471 R188K) above, with K166S counted along it
Sequence of alkaline phosphatase (AP) (Escherichia coli, UniProt P00634) (P00634 22-471): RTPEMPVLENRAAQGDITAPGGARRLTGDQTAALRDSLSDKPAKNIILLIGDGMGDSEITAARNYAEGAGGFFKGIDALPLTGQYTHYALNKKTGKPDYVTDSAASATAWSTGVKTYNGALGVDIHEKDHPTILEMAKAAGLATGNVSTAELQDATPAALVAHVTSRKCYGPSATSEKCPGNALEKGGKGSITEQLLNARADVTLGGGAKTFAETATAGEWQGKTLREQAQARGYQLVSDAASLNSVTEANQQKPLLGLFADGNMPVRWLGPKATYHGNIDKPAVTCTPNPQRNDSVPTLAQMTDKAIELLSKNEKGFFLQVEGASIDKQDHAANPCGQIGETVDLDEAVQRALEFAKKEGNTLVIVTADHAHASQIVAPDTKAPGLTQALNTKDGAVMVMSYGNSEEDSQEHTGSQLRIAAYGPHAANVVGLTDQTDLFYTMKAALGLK

Regarding `CCOP(=O)(O)O` [EtOP, ethyl phosphate], the “EtOP / kcat/KM” value in assay [1] turned out to be 24 M⁻¹ s⁻¹; in assay [2], 20 M⁻¹ s⁻¹.
Consider `O=[N+]([O-])c1ccc(OP(=O)(O)O)cc1` [pNPP, p-Nitrophenyl phosphate], for which the “pNPP / kcat/KM (M^-1s^-1)” value in assay [3] is 1.9 × 10^5 M^−1s^−1; in assay [4] it was 1.0 × 10^5 M^−1s^−1.
Consider `O=[N+]([O-])c1ccc(OP(O)(O)=S)cc1` [pNPPS, p-Nitrophenyl O-phosphorothioate], for which the entries for the “kcat/KM (M^-1s^-1) / pNPPS” value in assay [5], in assay [6] and in assay [7] were 5.5 × 10^3 M^−1s^−1, 2.6 × 10^3 M^−1s^−1 and 1.6 × 10^4 M^−1s^−1, respectively.
